We go through 44 compounds from the supplement of paper PMC5412046.

The structures appear in SMILES notation. Where a name gives a salt, the structure may show the parent alone.

The subject of the test is SB.msgc-1. In words: AC50 for growth inhibition (viability) (log10 M); higher = less potent. To be noted: SB.msgc-1 (sporadic gastric cancer). Summed up: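 Gastric cancer cells derived from patients with hereditary or sporadic disease were seeded at 500 cells in 5 μL medium per 1536 well. A pintool delivered 23 nL of compound in DMSO, as 11 threefold dilutions from a final 46 μM. After 48 h, CellTiter-Glo was added for 30 min at room temperature and luminescence was read on a ViewLux. The log half-maximal activity concentration was taken from a four-parameter fit of viability normalised to DMSO, using only high-quality curve classes.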
For the compound `Cc1cccc(Nc2nc(-c3ccncc3)cs2)c1`, the “AC50 for growth inhibition (log10 M)” value was -4.68.

Take `CNC(=O)c1cc(Oc2ccc(NC(=O)Nc3cc(C(C)(C)C)nn3-c3ccc4ncccc4c3)c(F)c2)ccn1` [DCC-2036]: the “AC50 for growth inhibition (log10 M)” value is -5.63.

Turning to `CO[C@@H](C(=O)N1Cc2[nH]nc(NC(=O)c3ccc(N4CCN(C)CC4)cc3)c2C1)c1ccccc1` [Danusertib], the “AC50 for growth inhibition (log10 M)” value was -5.53.

In the case of `COC1=CC=C2[C@H]3CC[C@]4(C)[C@H](CC[C@H]4[C@@H]3CCC2=C1)NCCCCCCN5C(=O)\C=C/C5=O`, the “AC50 for growth inhibition (log10 M)” value is -4.73.

Regarding `COc1ccc2c(c1)CN(C)CC2c1ccc(Cl)c(Cl)c1` (centres undefined) [Diclofensine], the “AC50 for growth inhibition (log10 M)” value was -4.73.

Turning to `O=C1NCCc2[nH]c(-c3ccncc3)cc21`, the “AC50 for growth inhibition (log10 M)” value is -5.63.

`CN1C(=O)C(=C\C2=C1N=C(NC3=CC=CC(=C3)C(O)=O)N=C2)/C4=C(Cl)C=CC=C4Cl`: the “AC50 for growth inhibition (log10 M)” value was -5.78.

For `COc1cc(Nc2ncc(F)c(Nc3ccc4c(n3)NC(=O)C(C)(C)O4)n2)cc(OC)c1OC` [R406], the “AC50 for growth inhibition (log10 M)” value was -4.63.

In the case of `CN(CC#C)C/C1=C/C2=CC=CC=C2OC3=CC=CC=C13` [Omigapil], the “AC50 for growth inhibition (log10 M)” value is -4.63.

On to `C[C@H]1[C@H](O)O[C@@H]2O[C@@]3(C)CC[C@H]4[C@H](C)CC[C@@H]1[C@@]24OO3` [Artenimol], for which the “AC50 for growth inhibition (log10 M)” value was -5.68.

For `COCC(=O)NC/C=C/c1ccc2ncnc(Nc3ccc(Oc4ccc(C)nc4)c(C)c3)c2c1`, the “AC50 for growth inhibition (log10 M)” value is -6.58.

For `CC(C)OC1=CC=C2C(=C1)O\C=C(/C2=O)C3=CC=CC=C3` [Ipriflavone], the “AC50 for growth inhibition (log10 M)” value was -4.78.

For the compound `O=C1Nc2ccc(I)cc2/C1=C/c1cc(Br)c(O)c(Br)c1` [GW-5074], the “AC50 for growth inhibition (log10 M)” value is -4.93.

In the case of `CN(C)C1=C(Br)C=C(C=C1)C\2NC3=C(\C4=C2C(=O)CC(C)(C)C4)C5=CC=CC=C5C=C3` (centres undefined) [GLS968], the “AC50 for growth inhibition (log10 M)” value was -5.23.

`O=C(Nc1cccc(C(F)(F)F)c1)Nc1cc([S+](=O)([O-])NC2CC2)ccc1-c1ccsc1` [AGI-6780]: the “AC50 for growth inhibition (log10 M)” value is -4.73.

Regarding `C[C@H]1CC2C3CCC/4=C/C(=O)/C=C\[C@]4(C)[C@@]3(F)[C@@H](O)C[C@]2(C)[C@@]1(O)C(=O)CO` (some centres undefined) [Betamethasone], the “AC50 for growth inhibition (log10 M)” value was -4.88.

Regarding `N#Cc1ccc(Oc2ccc3c(c2)COB3O)cc1` [AN2728], the “AC50 for growth inhibition (log10 M)” value was -4.73.

On to `CCC(C)(C)C(=O)O[C@H]1C[C@@H](C)\C=C2\C=C/[C@H](C)[C@H](CC[C@@H]3C[C@@H](O)CC(=O)O3)[C@@H]12` [Simvastatin], for which the “AC50 for growth inhibition (log10 M)” value was -4.78.

Regarding `O=C/1\C=C(/OC(=C1)/C2=C3SC4=C(SC3=CC=C2)C=CC=C4)N5CCOCC5` [KU-0064], the “AC50 for growth inhibition (log10 M)” value is -4.63.

On to `CCCCCCCCCCCCCCCC(=O)O[C@@H]1[C@@H](O)[C@@H](O)[C@@H]([C@H](NC(=O)[C@@H]2C[C@@H](CCC)CN2C)[C@H](C)Cl)O[C@@H]1SC.Cl` [Clindamycin palmitate], for which the “AC50 for growth inhibition (log10 M)” value is -4.78.

For the compound `Cc1csc(NC(=O)c2sc3nc4c(c(C(F)(F)F)c3c2N)CCC4)n1` [Irestatin 9389], the “AC50 for growth inhibition (log10 M)” value is -4.68.

`CC[C@H](C)C(=O)O[C@H]1C[C@@H](C)\C=C2\C=C/[C@H](C)[C@H](CC[C@@H]3C[C@@H](O)CC(=O)O3)[C@@H]12` [Lovastatin]: the “AC50 for growth inhibition (log10 M)” value is -4.73.

`CNC(=O)CN1CCC(Oc2cc3c(Nc4cccc(Cl)c4F)ncnc3cc2OC)CC1` [Sapitinib]: the “AC50 for growth inhibition (log10 M)” value was -7.98.

Consider `CCCCCCCCCCCCCC(=O)N[C@H](CO)[C@H](O)c1ccc([N+](=O)[O-])cc1` [D-NMAPPD], for which the “AC50 for growth inhibition (log10 M)” value is -4.93.

Regarding `CC[C@@H]([C@H](C)O)n1ncn(-c2ccc(N3CCN(c4ccc(OCC5CO[C@@](Cn6cncn6)(c6ccc(F)cc6F)C5)cc4)CC3)cc2)c1=O` (some centres undefined) [Posaconazole], the “AC50 for growth inhibition (log10 M)” value was -4.73.

For the compound `CCCCCNC(=O)N1CCC(CN(Cc2ccc(Cl)cc2)Cc2ccc([N+](=O)[O-])s2)C1` (centres undefined) [SR9011], the “AC50 for growth inhibition (log10 M)” value is -4.73.

Take `C[C@]12CC[C@H]3[C@@H](CC(=C)\C4=C\C(=O)\C=C/[C@]34C)[C@@H]1CCC2=O` [Exemestane]: the “AC50 for growth inhibition (log10 M)” value was -4.83.

With `CS[C@H]1SC[C@@H]2C(=O)N(C)[C@H](C(C)C)C(=O)OC[C@H](NC(=O)c3cnc4ccccc4n3)C(=O)N[C@H](C)C(=O)N(C)[C@H]1C(=O)N(C)[C@H](C(C)C)C(=O)OC[C@H](NC(=O)c1cnc3ccccc3n1)C(=O)N[C@H](C)C(=O)N2C` [Echinomycin], the “AC50 for growth inhibition (log10 M)” value is -8.33.

Turning to `C[S+](=O)([O-])N(Cc1ccco1)CC(O)Cn1c2ccccc2c2ccccc21` (centres undefined) [KL001], the “AC50 for growth inhibition (log10 M)” value is -4.68.

For the compound `Cc1csc(-c2nnc(Nc3ccc(Oc4ncccc4-c4ccnc(N)n4)cc3)c3ccccc23)c1` [AMG-900], the “AC50 for growth inhibition (log10 M)” value is -4.68.

On to `c1cc(N[C@@H]2CCNC2)nc(-c2cnc3ccc(-c4cn[nH]c4)cn23)c1`, for which the “AC50 for growth inhibition (log10 M)” value is -4.68.

For `COc1ccc(CC2NCCc3cc(OC)c(OC)cc32)cc1OC` (centres undefined) [Tetrahydropapaverine], the “AC50 for growth inhibition (log10 M)” value was -4.78.

As to `CC(C)[C@H](CO)Nc1nc(Nc2cccc(Cl)c2)c2ncn(C(C)C)c2n1` [Purvalanol A], the “AC50 for growth inhibition (log10 M)” value was -4.68.

Take `Cn1cnc(N)c2ncnc1-2` [3-Methyladenine]: the “AC50 for growth inhibition (log10 M)” value was -5.28.

`NC\1=N\C(=O)N(\C=C1)[C@@H]2O[C@H](CO)[C@@H](O)[C@@H]2O` [Cytarabine]: the “AC50 for growth inhibition (log10 M)” value was -7.18.

Regarding `Cc1c(C(=O)Nc2ccc(N3C[C@@H](C)O[C@@H](C)C3)nc2)cccc1-c1ccc(OC(F)(F)F)cc1` [NVP-LDE-225], the “AC50 for growth inhibition (log10 M)” value is -4.83.

`CC1(C)Cc2c(-c3ccccc3)c(-c3ccc(Cl)cc3)c(CC(=O)O)n2C1` [Licofelone]: the “AC50 for growth inhibition (log10 M)” value is -4.73.

Take `Cn1ccc2cc3c(cc21)CCN3C(=O)Nc1cccnc1`: the “AC50 for growth inhibition (log10 M)” value was -5.03.

Take `CC(=O)[C@H]1CC[C@H]2[C@@H]3CCC4=CC(=O)CC[C@]4(C)[C@H]3CC[C@]12C` [Progesterone]: the “AC50 for growth inhibition (log10 M)” value was -4.78.

For the compound `CN(C)C(=O)C(CCN1CCC(O)(c2ccc(Cl)cc2)CC1)(c1ccccc1)c1ccccc1` [Loperamide hydrochloride], the “AC50 for growth inhibition (log10 M)” value was -4.78.

Take `C[S+](=O)([O-])CCNCc1ccc(-c2ccc3ncnc(Nc4ccc(OCc5cccc(F)c5)c(Cl)c4)c3c2)o1` [Lapatinib]: the “AC50 for growth inhibition (log10 M)” value was -7.93.

As for `Cc1ccc(Nc2nccc(N(C)c3ccc4c(C)n(C)nc4c3)n2)cc1[S+](N)(=O)[O-]` [Pazopanib], the “AC50 for growth inhibition (log10 M)” value was -4.78.

Turning to `O=C1Nc2ccccc2/C1=C1\Nc2ccccc2C1=O` [Indirubin], the “AC50 for growth inhibition (log10 M)” value was -5.18.

As to `O=C(Nc1cccnc1)N1CCC(Cc2cccc(Oc3ccc(C(F)(F)F)cn3)c2)CC1` [PF-3845], the “AC50 for growth inhibition (log10 M)” value is -4.78.
